From ChEMBL document CHEMBL1806368 (Bioorg Med Chem Lett, 2011) come the findings set out here.

Values after ≈ are worked out from the molar mass of the structure shown.

The nature of data set [1]: Aqueous solubility of the compound at pH 7.4. The format is physicochemical. The settings on record: buffer.
Data set [2] in a line: Plasma concentration in human NCI-H1975 cell xenografted mouse at 25 mg/kg, iv after 6 hrs. The format is ADME, organism-based. Further details: dose 25 mg/kg, route intravenous. (A xenograft is tissue or cells of one species grown in another, often human tumour cells in immunodeficient mice.)
A short description of data set [3]: Plasma concentration in human NCI-H1975 cell xenografted mouse at 25 mg/kg, iv after 24 hrs. The format is ADME, organism-based. Details: dose 25 mg/kg, route intravenous.
Data set [4] in a line: Drug level in tumor in human NCI-H1975 cell xenografted mouse at 25 mg/kg, iv after 6 hrs. The settings on record: read-out: Drug uptake. Further details: dose 25 mg/kg, route intravenous. The format is ADME, organism-based, Neoplasm.
A short description of data set [5]: Drug level in tumor in human NCI-H1975 cell xenografted mouse at 25 mg/kg, iv after 24 hrs. Type of data set: ADME, organism-based, Neoplasm. Further details: dose 25 mg/kg, route intravenous. To be noted: read-out: Drug uptake.
Data set [6] can be described thus: Plasma concentration in human U87MG cells xenografted mouse at 50 mg/kg, iv after 6 hrs. Type of data set: ADME, organism-based, U-87MG ATCC. Details: dose 50 mg/kg, route intravenous.
A short description of data set [7]: Plasma concentration in human U87MG cells xenografted mouse at 50 mg/kg, iv after 24 hrs. Details: dose 50 mg/kg, route intravenous. The format is ADME, organism-based, U-87MG ATCC.
Data set [8] in a line: Drug level in tumor in human U87MG cells xenografted mouse at 50 mg/kg, iv after 6 hrs. The format is ADME, organism-based, Neoplasm, U-87MG ATCC. Further details: dose 50 mg/kg, route intravenous. To be noted: read-out: Drug uptake.
Data set [9] in a line: Drug level in tumor in human U87MG cells xenografted mouse at 50 mg/kg, iv after 24 hrs. The format is ADME, organism-based, Neoplasm, U-87MG ATCC. The settings on record: read-out: Drug uptake. Details: dose 50 mg/kg, route intravenous.
Data set [10] in a line: Plasma concentration in human U87MG cells xenografted mouse at 50 mg/kg, po after 6 hrs. Further details: dose 50 mg/kg, route oral. The format is ADME, organism-based, U-87MG ATCC.
Data set [11] is described as follows: Plasma concentration in human U87MG cells xenografted mouse at 50 mg/kg, po after 24 hrs. Type of data set: ADME, organism-based, U-87MG ATCC. Further details: dose 50 mg/kg, route oral.
Data set [12] in a line: Drug level in tumor in human U87MG cells xenografted mouse at 50 mg/kg, po after 6 hrs. The format is ADME, organism-based, Neoplasm, U-87MG ATCC. Details: dose 50 mg/kg, route oral. To be noted: read-out: Drug uptake.
A short description of data set [13]: Drug level in tumor in human U87MG cells xenografted mouse at 50 mg/kg, po after 24 hrs. Type of data set: ADME, organism-based, Neoplasm, U-87MG ATCC. The settings on record: read-out: Drug uptake. Further details: dose 50 mg/kg, route oral.
Data set [14] in a line: AUC (0 to infinity) in CD1 mouse at 2 mg/kg, iv. The format is ADME, organism-based. Further details: time infinity, dose 2 mg/kg, route intravenous. The settings on record: plasma.
The nature of data set [15]: Volume of distribution at steady state in CD1 mouse at 2 mg/kg, iv. The format is ADME, organism-based. Details: dose 2 mg/kg, route intravenous. To be noted: in vivo, read-out: Vdss.
The nature of data set [16]: Bioavailability in CD1 mouse at 2 mg/kg, iv. The format is ADME, organism-based. To be noted: in vivo.
The nature of data set [17]: AUC (0 to infinity) in CD1 mouse at 20 mg/kg, po. The format is ADME, organism-based. Details: time infinity, dose 20 mg/kg, route oral. To be noted: plasma.
A short description of data set [18]: Cmax in CD1 mouse at 20 mg/kg, po. The format is ADME, organism-based. Details: dose 20 mg/kg, route oral. To be noted: in vivo.
Data set [19] in a line: Tmax in CD1 mouse at 20 mg/kg, po. Type of data set: ADME, organism-based. Further details: dose 20 mg/kg, route oral. The settings on record: in vivo.

By solubility is commonly meant the dissolved amount per volume that the medium holds. For orientation: AUC(0-inf) means total exposure, with the tail of the curve extrapolated. The term bioavailability denotes the share of a dose that reaches the circulation, judged against a reference dose that is usually intravenous. Lower therefore signals poor availability. Usually Cmax stands for the highest concentration seen after dosing. By Tmax is commonly meant the time from dosing to the highest level.

On to `Cc1c2c(n3c1CCCNC[C@H](C)Nc1cc-3ccc1C(N)=O)CC(C)(C)CC2=O`, for which, in data set [1] (read-out: solubility), the solubility is above 100 µg/mL.
Turning to `Cc1c2c(n3c1CCN(C(=O)[C@H](C)N)CC[C@H](C)Nc1cc-3ccc1C(N)=O)CC(C)(C)CC2=O`, the solubility in data set [1] (read-out: solubility) is above 100 µg/mL.
With `Cc1c2c(n3c1CCCN1CCC[C@H]1CNc1cc-3ccc1C(N)=O)CC(C)(C)CC2=O`, in [1], the solubility worked out at 2324 µg/mL (≈ 5350 µM).
For `Cc1c2c(n3c1CCN(C(=O)[C@@H]1C[C@H](F)CN1)C[C@@H](C)[C@H](C)Nc1cc-3ccc1C(N)=O)CC(C)(C)CC2=O`, the solubility in data set [1] (read-out: solubility) worked out at 100 µg/mL (≈ 186 µM).
On to `CC(=O)N1CCc2c(C)c3c(n2-c2ccc(C(N)=O)c(c2)N[C@@H](C)[C@H](C)C1)CC(C)(C)CC3=O`, for which, in [1] (read-out: solubility), the solubility is 38 µg/mL (≈ 81.8 µM).
Take `Cc1c2c(n3c1CCN(C(=O)CN)C[C@@H](C)[C@H](C)Nc1cc-3ccc1C(N)=O)CC(C)(C)CC2=O`: the solubility in [1] (read-out: solubility) amounted to 46 µg/mL (≈ 95.9 µM).
Regarding `Cc1c2c(n3c1CCN(C(=O)[C@H](C)N)C[C@@H](C)[C@H](C)Nc1cc-3ccc1C(N)=O)CC(C)(C)CC2=O`, in data set [1] (read-out: solubility), the solubility worked out at 10 µg/mL (≈ 20.3 µM). The concentration at 6 h was 36 ng/mL in data set [2]; 693 ng/g in [4]; 102 ng/mL in [6]; 967 ng/g in data set [8]; 53 ng/mL in data set [10]; 309 ng/g in data set [12]. Besides, the concentration at 24 h was 9 ng/mL in data set [3]; 910 ng/g in data set [5]; 45 ng/mL in [7]; 772 ng/g in [9]; 6 ng/mL in [11]; 242 ng/g in data set [13]. The AUC(0-inf) was 542 ng·h/mL in data set [14] and 234 ng·h/mL in data set [17]. Moreover, the Vd in [15] is 30 L/kg. This compound also came in with a bioavailability in [16] of 4%. In [18], this compound yielded a Cmax of 22 ng/mL. The time to peak (Tmax) in data set [19] turned out to be 1 h.
`CC[C@H](N)C(=O)N1CCc2c(C)c3c(n2-c2ccc(C(N)=O)c(c2)N[C@@H](C)[C@H](C)C1)CC(C)(C)CC3=O`: the solubility in data set [1] (read-out: solubility) is above 100 µg/mL.
Still for that read-out and setting: to `Cc1c2c(n3c1CCN(C(=O)[C@@H](N)C(C)C)C[C@@H](C)[C@H](C)Nc1cc-3ccc1C(N)=O)CC(C)(C)CC2=O` belongs above 100 µg/mL; to `Cc1c2c(n3c1CCN(C(=O)C(C)(C)N)C[C@@H](C)[C@H](C)Nc1cc-3ccc1C(N)=O)CC(C)(C)CC2=O`, above 100 µg/mL.
On to `Cc1c2c(n3c1CCN(C(=O)C1(N)CC1)C[C@@H](C)[C@H](C)Nc1cc-3ccc1C(N)=O)CC(C)(C)CC2=O`, for which the solubility in [1] (read-out: solubility) is 7 µg/mL (≈ 13.8 µM).
Still for that read-out and setting: to `Cc1c2c(n3c1CCN(C(=O)C1(N)CCCC1)C[C@@H](C)[C@H](C)Nc1cc-3ccc1C(N)=O)CC(C)(C)CC2=O` belongs 53 µg/mL (≈ 99.3 µM); to `Cc1c2c(n3c1CCN(C(=O)[C@@H]1CCCN1)C[C@@H](C)[C@H](C)Nc1cc-3ccc1C(N)=O)CC(C)(C)CC2=O`, above 100 µg/mL; to `Cc1c2c(n3c1CCN(C(=O)[C@H]1CCCN1)C[C@@H](C)[C@H](C)Nc1cc-3ccc1C(N)=O)CC(C)(C)CC2=O`, above 100 µg/mL.
For the compound `Cc1c2c(n3c1CCN(C(=O)[C@H](C)O)C[C@@H](C)[C@H](C)Nc1cc-3ccc1C(N)=O)CC(C)(C)CC2=O`, in data set [1] (read-out: solubility), the solubility was found to be 60 µg/mL (≈ 121 µM).
Consider `Cc1c2c(n3c1CCN(C(=O)[C@@H](O)C(C)C)C[C@@H](C)[C@H](C)Nc1cc-3ccc1C(N)=O)CC(C)(C)CC2=O`, for which, in data set [1] (read-out: solubility), the solubility was 30 µg/mL (≈ 57.4 µM).
